Legend:
[1] = system: cecal ligation and puncture (CLP) model; assay: Therapeutic efficacy in cecal ligation and puncture (CLP) polymicrobial sepsis model; assay type: in vivo, C57BL/6 mice; conditions: IV 2 h post-CLP and every 2 days, max three times; D-TZP and TZP 10 mg/kg PMB eq., free PMB 5 mg/kg
Experimental: The efficacy of systemic […] was further tested in cecal ligation and puncture (CLP) model, which induces systemic inflammation by polymicrobial infection and thus simulates a clinically relevant septic state (Toscano, M. G. et al., JoVE, e2860 (2011)). D-TZP and TZP was administered IV at 10 mg/kg PMB eq. 2 h post-CLP and every subsequent 2 days a maximum total of three times. Free PMB was given at 5 mg/kg IV in the same schedule as D-TZP.
Therapeutic efficacy in polymicrobial sepsis model by cecal ligation and puncture (CLP). The efficacy of D-TZP and TZP was evaluated in a cecal ligation and puncture (CLP) model, the gold standard of polymicrobial sepsis model. The abdomen of 6 week-old C57BL/6 male was cleaned with a hair-removal cream (Nair, Church & Dwight Co., Inc). The mice were anesthetized by 2.5% isofluorane. Betadine 0.5% solution and 70% isopropyl alcohol swap were alternately applied three times to disinfect the shaved abdomen. Midline laparotomy was performed under an aseptic condition to exteriorize the cecum. The cecum was ligated below the ileocecal valve with a 5-0 suture (perma-hand silk, Ethicon) and perforated twice with 20 G needle on the same side of the cecum to release feces into the peritoneal cavity. After perforation, the intestines were returned to abdominal cavity. […] Animals were monitored as described in the endotoxemia model.

[2] = system: Klebsiella pneumoniae NR-41920; assay: Minimum inhibitory concentration, broth microdilution; assay type: cell-based
Description: (§1) Bacterial cell lines and reagents. Escherichia coli ATCC 2452 (NDM-1, isolated in Pakistan) was New Delhi metallo-beta-lactamase (NDM-1) positive, blaNDM positive by PCR, and carbepenem-resistant (Imipenem and Ertapenem). Escherichia coli ATCC 2469 (1001728, isolated from human urine) was New Delhi metallo-beta-lactamase (NDM-1) positive, blaKPC negative and blaNDM positive by PCR, and Carbepenem-resistant (Imipenem and Ertapenem). Klebsiella pneumoniae (NR-41920, isolated in 2008 from human blood culture in Boston, Massachusetts, USA) was Carbapenem-resistant strain, blaKPC-3 positive by PCR, and resistant to amikacin, ampicillin/sulbactam, cefazolin, cefepime, ceftazidime, ceftriaxone, cefuroxime, ciprofloxacin, gentamicin, meropenem, piperacillin/tazobactam, tobramicin and trimethoprim/sulfamethoxazole. Pseudomonas aeruginosa (NR-50573, isolated in early 1970s from the blood of a burn patient at Mercy Hospital in Pittsburgh, Pennsylvania, USA) was resistant to rifampicin and susceptible to meropenem, ofloxacin, ceftazidime, amikacin, and tobramycin. 0.5 McFarland standard was purchased from ThermoFisher scientific (Waltham, MA, USA). Mueller-Hinton broth and tryptone soy agar plates were purchased from Becton, Dickinson and company (Franklin Lakes, New Jersey, USA).
(§2) Antimicrobial activities The minimum inhibitory concentrations (MICs) of the control antibiotics (gentamicin and imipenem), PMB, D-TZP and TZP against Escherichia coli, Klebsiella pneumoniae and Pseudomonas aeruginosa strains were determined by the broth microdilution method, according to guidelines outlined by the Clinical and Laboratory Standards Institute (CLSI)^18. The bacterial stains were grown aerobically overnight on tryptone soy agar plates at 37° C. Afterwards, a bacterial solution equivalent to 0.5 McFarland standard was prepared and diluted in cation-adjusted Mueller-Hinton broth (CAMHB) to achieve a bacterial concentration of ˜5×10^5 CFU/mL. The treatments were added in the first row of the 96-well plates and serially diluted with media containing bacteria. Plates were incubated aerobically at 37° C. for 16-18 hours.

[3] = system: Escherichia coli ATCC 2452; assay: as above; assay type: cell-based
Description: as §1, §2

[4] = system: Escherichia coli ATCC 2469; assay: as above; assay type: cell-based
Description: as §1, §2

[5] = system: Pseudomonas aeruginosa NR-50573; assay: as above; assay type: cell-based
Description: as §1, §2

C57BL/6 male mice = assay: In vivo safety; conditions: dose exceeding its LD50
Experimental: D-TZP was intraperitoneally (IP) or intravenously (IV) injected to C57BL/6 male mice at doses equivalent to as high as 40 mg/kg PMB and 10 mg/kg PMB, respectively, much greater than the known IP and IV LD50 values of free PMB (20 mg/kg for IP and 5 mg/kg for IV). […] Higher doses have not been tested; therefore, the maximum tolerated dose of D-TZP in each route could not be defined. […] The increased tolerated dose is consistent with the reduced in vitro toxicity of D-TZP.
In vivo safety. 6-10 week-old C57BL/6 male mice were used to evaluate the safety of D-TZP and TZP in comparison with free PMB. The treatment was administered by IP (2.5-40 mg/kg) or IV (3-10 mg/kg) injection. The body weight changes were monitored daily up to 1 week. For blood chemistry and histology analysis, blood and major organs were collected at 12 h post IV injection of vehicle (5% dextrose), free PMB, D-TZP, or TZP (all equivalent to 10 mg/kg PMB). Animals were sacrificed by CO2 asphyxiation. Blood was obtained by cardiac puncture. Major organs were fixed in 10% formalin, embedded in paraffin, sectioned, and stained with hematoxylin and eosin for histological evaluation. The samples were imaged with a Nikon 90i upright microscope. To evaluate the safety of multiple intravenous injections, 5 mg/kg PMB or 10 mg/kg PMB equivalent D-TZP was given every 2 days up to 4 times total with body weight monitoring over 2 weeks.

In the case of polymyxin B [PMB], the survival [1] is reported as 33%, the “Minimum inhibitory concentration (MIC)” value [2] is reported as 0.5 µg/mL and the “Minimum inhibitory concentration (MIC)” value [3] is reported as 0.5 µg/mL. For the same substance, the “Minimum inhibitory concentration (MIC)” value [4] was 0.125 µg/mL, the “Minimum inhibitory concentration (MIC)” value [5] was 0.5 µg/mL and the mortality (C57BL/6 male mice) was “resulted in mortality”.

Reference: patent US11865158B2, “Process and composition matter of nanoparticle formulation for systemic treatment of sepsis” (PURDUE RESEARCH FOUNDATION, priority 2019, dated 2024)
